# Assay results: US9708336B2, “Metallo-beta-lactamase inhibitors” (priority 2014, dated 2017)
# Like-named read-outs stand apart in the source and are kept apart here.
# Assays:
# VIM-1 = VIM-1 (Pseudomonas aeruginosa (strain ATCC 15692 / DSM 22644 / CIP 104116 / JCM 14847 / LMG 12228 / 1C / PRS 101 / PAO1), UniProt A0A0F7KYQ8); assay: Enzyme activity: determination of IC50, fluorescence assay with CCF2-FA substrate (VIM-1); type: biochemical
# IMP-1 = IMP-1 (Serratia marcescens, UniProt P52699); assay: biochemical; type: biochemical
# Sequence of IMP-1 (P52699 whole entry, looked up): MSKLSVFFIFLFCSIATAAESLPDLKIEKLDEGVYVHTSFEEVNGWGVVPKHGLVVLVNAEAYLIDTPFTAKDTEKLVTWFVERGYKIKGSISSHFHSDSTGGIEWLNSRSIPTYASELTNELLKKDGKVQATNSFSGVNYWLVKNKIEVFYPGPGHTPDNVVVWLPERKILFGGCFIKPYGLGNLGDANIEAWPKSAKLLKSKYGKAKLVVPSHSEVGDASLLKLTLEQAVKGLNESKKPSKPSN
# NDM-1 = NDM-1 (Klebsiella pneumoniae, UniProt C7C422); assay: biochemical; type: biochemical
# Sequence of NDM-1 (C7C422 whole entry, looked up, species assumed): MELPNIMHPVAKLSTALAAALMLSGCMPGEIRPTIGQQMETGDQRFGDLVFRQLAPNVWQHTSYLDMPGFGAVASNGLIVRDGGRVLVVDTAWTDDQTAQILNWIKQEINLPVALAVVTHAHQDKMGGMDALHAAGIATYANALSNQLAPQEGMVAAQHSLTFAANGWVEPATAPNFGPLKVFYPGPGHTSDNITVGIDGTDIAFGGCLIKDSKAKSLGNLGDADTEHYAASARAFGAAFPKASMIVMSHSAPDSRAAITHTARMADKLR
# [1] = test system: Klebsiella pneumoniae expressing VIM-1 (IHMA599644); assay: Antibiotic potentiation activity: synergistic concentration (MITC95) with imipenem, OD600 growth; type: cell-based
# Procedure: (§1) Antibiotic Potentiation Activity: Determination of Synergistic Concentration
# (§2) The bacterial strains tested included the clinical strains Escherichia coli expressing NDM-1 (CLB30005, CLB30016), Serratia marcescens expressing IMP-1 (CL5741), and Klebsiella pneumoniae expressing VIM-1 (IHMA599644) Inhibitor activity was measured in the presence and absence of imipenem in a 384-well microplate.
# (§3) The clinical strains CLB30016, CL5741 and IHMA599644 were grown on trypticase soy agar containing 5% sheep's blood. The clinical strain CLB30005 was grown on Mueller Hinton broth agar containing 8 ug/ml imipenem. The bacteria on agar plates were incubated at 35° C. with humidity overnight. The following day, individual colonies from each clinical strain were picked and resuspended in 5 ml saline to attain an OD600 of 0.14, 0.11, 0.15 and 0.13, for CLB30005, CLB30016, CL5741 and IHMA599644, respectively. These were further diluted 1:100 into 1.1×CAMHB and used to inoculate the test wells as described below.
# (§4) Imipenem in 10 mM 3-(N-morpholino)propanesulfonic acid (MOPS, pH 7) was stored in single use aliquots at −80° C. […] On the day of the assay, 4 μl of antibiotic was added to 45 ul of bacteria followed by 1 μl of test compound and mixed by pipetting and with an orbital shaker. The concentration of antibiotic used in the assay was 4 μg/ml, or optionally 1 μg/ml. Microplates were covered and incubated at 35° C. for 22 hours to 24 hours. At the end of the incubation, absorbance was determined using a spectrophotometer.
# [2] = test system: Serratia marcescens expressing IMP-1 (CL5741); assay: as above; type: cell-based
# Procedure: as §1, §2, §3, §4
# [3] = test system: Escherichia coli expressing NDM-1 (CLB30016); assay: as above; type: cell-based
# Procedure: as §1, §2, §3, §4
# [4] = IMP-1 enzyme, CCF2-FA substrate, read-out: IMP-1 IC50
# [5] = NDM-1 enzyme, CCF2-FA substrate, read-out: NDM-1 IC50
# [6] = Klebsiella pneumoniae IHMA599644 (VIM-1), 95% growth inhibition
# [7] = Serratia marcescens CL5741 (IMP-1), 95% growth inhibition
# [8] = (CLB30016, NDM-1), 95% growth inhibition
# [9] = fluorescence assay with CCF2-FA substrate, read-out: VIM-1 IC50
# [10] = fluorescence assay with CCF2-FA substrate, read-out: IMP-1 IC50
# [11] = fluorescence assay with CCF2-FA substrate, read-out: NDM-1 IC50
# [12] = concentration giving 95% inhibition of bacterial growth
# [13] = VIM-1 enzyme, CCF2-FA substrate, read-out: VIM-1 IC50
# [14] = IHMA599644 (VIM-1), 95% inhibition of bacterial growth
# [15] = CL5741 (IMP-1), 95% inhibition of bacterial growth
# [16] = CLB30016 (NDM-1), 95% inhibition of bacterial growth
# [17] = VIM-1 enzyme, CCF2-FA fluorescence assay, read-out: VIM-1 IC50
# [18] = IMP-1 enzyme, CCF2-FA fluorescence assay, read-out: IMP-1 IC50
# [19] = NDM-1 enzyme, CCF2-FA fluorescence assay, read-out: NDM-1 IC50
# [20] = Klebsiella pneumoniae expressing VIM-1 (IHMA599644), 95% growth inhibition
# [21] = Serratia marcescens expressing IMP-1 (CL5741), 95% growth inhibition
# [22] = Escherichia coli expressing NDM-1 (CLB30016), 95% growth inhibition
structure (smiles),measurement,setting,value
"NS(=O)(=O)c1c(C(F)(F)F)ccc(-c2cnc(N3CCNCC3)nc2)c1-c1nnn[nH]1 [Example 706, 3-(2-piperazin-1-ylpyrimidin-5-yl)-2-(1H-tetrazol-5-yl)-6-(trifluoromethyl)benzenesulfon-amide]",IC50,"VIM-1; VIM-1 IC50, VIM-1 enzyme, CCF2-FA substrate",0.632 nM
same,IC50,IMP-1; [4],12.4 nM
same,IC50,NDM-1; [5],4.52 nM
same,Klebsiella pneumoniae MITC95,[1]; [6],1.563 µM
same,Serratia marcescens MITC95,[2]; [7],6.25 µM
same,Escherichia coli MITC95,[3]; [8],3.125 µM
"NS(=O)(=O)c1cccc(C2CCC(O)CC2)c1-c1nn[nH]n1 (stereo not drawn) [Example 171, 3-(4-hydroxycyclohexyl)-2-(2H-tetrazol-5-yl)benzenesulfonamide]",IC50,VIM-1; [9],128 nM
same,IC50,IMP-1; [10],119 nM
same,IC50,NDM-1; [11],8.56 nM
same,Klebsiella pneumoniae expressing VIM-1 (IHMA 599644) MITC95,[1]; [12],25 µM
same,Serratia marcescens expressing IMP-1 (CL5741) MITC95,[2]; [12],6.25 µM
same,Escherichia coli expressing NDM-1 (CLB 30016) MITC95,[3]; [12],2.344 µM
"NS(=O)(=O)c1c(CC[C@H]2CC[C@H](N)CC2)ccc(-c2ccc(C3CCNC3)cc2)c1-c1nnn[nH]1 (stereo partly drawn) [Example 584, 4-(2-((1r,4s)-4-aminocyclohexyl)ethyl)-4′-(pyrrolidin-3-yl)-2-(1H-tetrazol-5-yl)-[1,1′-biphenyl]-3-sulfonamide]",IC50,VIM-1; [13],1.61 nM
same,IC50,IMP-1; [4],10.2 nM
same,IC50,NDM-1; [5],2.05 nM
same,Klebsiella pneumoniae MITC95,[1]; [6],6.25 µM
same,Serratia marcescens MITC95,[2]; [7],1.563 µM
same,Escherichia coli MITC95,[3]; [8],1.563 µM
NS(=O)(=O)c1c(C(F)(F)F)ccc([C@H]2CC[C@H](O)CC2)c1-c1nnn[nH]1 [Example 496],IC50,VIM-1; [13],0.397 nM
same,IC50,IMP-1; [4],1.09 nM
same,IC50,NDM-1; [5],0.506 nM
same,Klebsiella pneumoniae MITC95,[1]; [6],3.125 µM
same,Serratia marcescens MITC95,[2]; [7],0.3906 µM
same,Escherichia coli MITC95,[3]; [8],1.172 µM
"Nc1ccc(CN[C@H]2CC[C@H](c3ccc(C(F)(F)F)c(S(N)(=O)=O)c3-c3nnn[nH]3)CC2)cn1 [Example 682, 3-(4-{[(6-aminopyridin-3-yl)methyl]amino}cyclohex-yl)-2-(1H-tetrazol-5-yl)-6-(trifluoromethyl)benzene sulfonamide]",IC50,VIM-1; [13],0.684 nM
same,IC50,IMP-1,27.4 nM
same,IC50,NDM-1,4.12 nM
same,Klebsiella pneumoniae MITC95,[1]; [6],12.5 µM
same,Serratia marcescens MITC95,[2]; [7],6.25 µM
same,Escherichia coli MITC95,[3]; [8],6.25 µM
"NS(=O)(=O)c1c(C(F)(F)F)ccc(-c2ccc(C3CN(C4CCNC4)C3)cc2)c1-c1nnn[nH]1 (stereo not drawn) [Example 801, 4′-(1-pyrrolidin-3-ylazetidin-3-yl)-2-(1H-tetrazol-5-yl)-4-(trifluoromethyl)biphenyl-3-sulfonamide]",IC50,VIM-1; [9],9.45 nM
same,IC50,IMP-1; [10],2.8 nM
same,IC50,NDM-1; [11],2.22 nM
same,Klebsiella pneumoniae MITC95,[1]; [14],100 µM
same,Serratia marcescens MITC95,[2]; [15],6.25 µM
same,Escherichia coli MITC95,[3]; [16],3.125 µM
"CN(C)C1CCC(NCc2ccc(-c3cccc(S(N)(=O)=O)c3-c3nnn[nH]3)cc2)CC1 (stereo not drawn) [Example 355, 4′-({[4-(dimethylamino)cyclohexyl]amino}methyl)-2-(1H-tetrazol-5-yl)biphenyl-3-sulfonamide]",IC50,VIM-1; [17],869 nM
same,IC50,IMP-1; [18],467 nM
same,IC50,NDM-1; [19],14 nM
same,Klebsiella pneumoniae MITC95,[1]; [20],150 µM
same,Serratia marcescens MITC95,[2]; [21],4.688 µM
same,Escherichia coli MITC95,[3]; [22],1.563 µM
"NC1CCC2CN(c3ccc(C(F)(F)F)c(S(N)(=O)=O)c3-c3nnn[nH]3)CC2C1 (stereo not drawn) [Example 767, 3-(5-aminooctahydro-2H-isoindol-2-yl)-2-(1H-tetrazol-5-yl)-6-(trifluoromethyl) benzenesulfonamide]",IC50,VIM-1; [9],4.58 nM
same,IC50,IMP-1; [10],223 nM
same,IC50,NDM-1; [11],208 nM
same,Klebsiella pneumoniae MITC95,[1]; [14],12.5 µM
same,Serratia marcescens MITC95,[2]; [15],50 µM
same,Escherichia coli MITC95,[3]; [16],200 µM
"NCc1nccc2cc(-c3cccc(S(N)(=O)=O)c3-c3nn[nH]n3)ccc12 [Example 280, 3-(1-(aminomethyl)isoquinolin-6-yl)-2-(2H-tetrazol-5-yl)benzenesulfonamide]",IC50,"VIM-1; VIM-1 IC50, VIM-1 enzyme, CCF2-FA fluorescence assay",20.4 nM
same,IC50,IMP-1; [18],15.8 nM
same,IC50,NDM-1; [19],1.44 nM
same,Klebsiella pneumoniae MITC95,[1]; [20],3.125 µM
same,Serratia marcescens MITC95,[2]; [21],6.25 µM
same,Escherichia coli MITC95,[3]; [22],0.5859 µM
"NCC(CN)c1ccc(-c2cccc(S(N)(=O)=O)c2-c2nnn[nH]2)cc1 [Example 509, 4′-(1,3-Diaminopropan-2-yl)-2-(1H-tetrazol-5-yl)-[1,1′-biphenyl]-3-sulfonamide]",IC50,VIM-1; [13],396 nM
same,IC50,IMP-1; [4],929 nM
same,IC50,NDM-1; [5],57.4 nM
same,Klebsiella pneumoniae MITC95,[1]; [6],50 µM
same,Serratia marcescens MITC95,[2]; [7],12.5 µM
same,Escherichia coli MITC95,[3]; [8],1.563 µM
"NS(=O)(=O)c1c(C(F)(F)F)ccc(-c2cccn3ncnc23)c1-c1nnn[nH]1 [Example 840, 3-([1,2,4]triazolo[1,5-a]pyridin-8-yl)-2-(1H-tetrazol-5-yl)-6-(trifluoromethyl)benzenesulfonamide]",IC50,VIM-1; [9],0.46 nM
same,IC50,IMP-1; [10],14.1 nM
same,IC50,NDM-1; [11],2.49 nM
same,Klebsiella pneumoniae MITC95,[1]; [14],6.25 µM
same,Serratia marcescens MITC95,[2]; [15],12.5 µM
same,Escherichia coli MITC95,[3]; [16],3.125 µM
"CN(C)[C@@H]1CCN(Cc2ccc(-c3cccc(S(N)(=O)=O)c3-c3nnn[nH]3)cc2)C1 [Example 347, 4′-{[(3R)-3-(dimethylamino)pyrrolidin-1-yl]methyl}-2-(1H-tetrazol-5-yl)biphenyl-3-sulfonamide]",IC50,VIM-1; [17],844 nM
same,IC50,IMP-1; [18],185 nM
same,IC50,NDM-1; [19],12.2 nM
same,Klebsiella pneumoniae MITC95,[1]; [20],200 µM
same,Serratia marcescens MITC95,[2]; [21],3.125 µM
same,Escherichia coli MITC95,[3]; [22],2.344 µM
"NS(=O)(=O)c1c(C(F)(F)F)ccc(-c2cccc(N3CCC(O)CC3)c2)c1-c1nnn[nH]1 [Example 741, 3′-(4-hydroxypiperidin-1-yl)-2-(1H-tetrazol-5-yl)-4-(trifluoromethyl)biphenyl-3-sulfonamide]",IC50,VIM-1; [13],2.74 nM
same,IC50,IMP-1; [4],6.12 nM
same,IC50,NDM-1; [5],4.65 nM
same,Klebsiella pneumoniae MITC95,[1]; [6],>200 µM
same,Serratia marcescens MITC95,[2]; [7],25 µM
same,Escherichia coli MITC95,[3]; [8],25 µM
"NCCCCNc1nc2c(-c3cccc(S(N)(=O)=O)c3-c3nnn[nH]3)cccc2s1 [Example 642, 3-[2-(4-aminobutylamino)-1,3-benzothiazol-4-yl]-2-(1H-tetrazol-5-yl)benzenesulfonamide]",IC50,VIM-1; [13],9 nM
same,IC50,IMP-1; [4],51.9 nM
same,IC50,NDM-1; [5],1.01 nM
same,Klebsiella pneumoniae MITC95,[1]; [6],50 µM
same,Serratia marcescens MITC95,[2]; [7],25 µM
same,Escherichia coli MITC95,[3]; [8],1.563 µM
